Measured values taken from patent US10167262B2, “Herbicidal substituted 3-arylpyrazoles” (FMC CORPORATION, priority 2014, dated 2019).
Read-outs that look alike come from different tables or passages of the source.

How the values were obtained:
Format in all cases: in vivo
[1] = tested on: goosegrass (Eleusine indica); experiment: Test C postemergence greenhouse test, plant response rating 0-100
Method in brief: (§1)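 Plants rated visually 0 (no effect) to 100 (complete control) against untreated controls after 13 to 15 days in the greenhouse, dash indicating no result. Treatment was a postemergence application of formulated chemicals at the 1- to 4-leaf stage (2 to 18 cm), in pots of peat-vermiculite medium.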

[2] = tested on: bermudagrass (Cynodon dactylon); experiment: as above
Method in brief: as §1

soybean (Glycine max) = experiment: Test C pre-/postemergence greenhouse test, plant response rating 0-100; settings: Glycine max; for plant injury at 62 g/ha: 62 g ai/ha; for plant injury at 125 g/ha: 125 g ai/ha; for plant injury at 250 g/ha: 250 g ai/ha
Method in brief: (§2)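 Plants were scored visually against controls 13–15 days after treatment on a 0–100 scale, 100 meaning complete control. Test chemicals, formulated in surfactant-containing non-phytotoxic solvent, went preemergence onto seeds in loam–sand blend or postemergence onto 1- to 4-leaf plants (2–18 cm) grown in peat-based mix.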

[3] = tested on: galium (catchweed bedstraw, Galium aparine); experiment: as above; settings: Galium; for pest or weed control at 62 g/ha: 62 g ai/ha; for pest or weed control at 125 g/ha: 125 g ai/ha; for pest or weed control at 250 g/ha: 250 g ai/ha
Method in brief: as §2

[4] = tested on: blackgrass (Alopecurus myosuroides); experiment: as above; settings: Alopecurus myosuroides; for pest or weed control at 62 g/ha: 62 g ai/ha; for pest or weed control at 125 g/ha: 125 g ai/ha; for pest or weed control at 250 g/ha: 250 g ai/ha
Method in brief: as §2

[5] = tested on: pigweed (Amaranthus retroflexus); experiment: as above; settings: Amaranthus retroflexus; for pest or weed control at 62 g/ha: 62 g ai/ha; for pest or weed control at 250 g/ha: 250 g ai/ha
Method in brief: as §2

[6] = tested on: morningglory (Ipomoea coccinea); experiment: as above; settings: Ipomoea; for pest or weed control at 62 g/ha: 62 g ai/ha; for pest or weed control at 125 g/ha: 125 g ai/ha; for pest or weed control at 250 g/ha: 250 g ai/ha
Method in brief: as §2

[7] = tested on: lambsquarters (Chenopodium album); experiment: as above; settings: Chenopodium album; for pest or weed control at 62 g/ha: 62 g ai/ha; for pest or weed control at 125 g/ha: 125 g ai/ha; for pest or weed control at 250 g/ha: 250 g ai/ha
Method in brief: as §2

corn (Zea mays) = experiment: as above; settings: Zea mays; for Corn plant response rating (crop injury, 0 = no effect, 100 = complete kill) at 250 g/ha: 250 g ai/ha
Method in brief: as §2

[8] = tested on: Italian ryegrass (Lolium multiflorum); experiment: as above; settings: Lolium multiflorum; for pest or weed control at 62 g/ha: 62 g ai/ha; for pest or weed control at 125 g/ha: 125 g ai/ha; for pest or weed control at 250 g/ha: 250 g ai/ha
Method in brief: as §2

[9] = tested on: ragweed (common ragweed, Ambrosia elatior); experiment: as above; settings: Ambrosia artemisiifolia; for pest or weed control at 62 g/ha: 62 g ai/ha; for pest or weed control at 125 g/ha: 125 g ai/ha; for pest or weed control at 250 g/ha: 250 g ai/ha
Method in brief: as §2

[10] = tested on: velvetleaf (Abutilon theophrasti); experiment: as above; settings: Abutilon theophrasti; for pest or weed control at 62 g/ha: 62 g ai/ha; for pest or weed control at 125 g/ha: 125 g ai/ha; for pest or weed control at 250 g/ha: 250 g ai/ha
Method in brief: as §2

[11] = tested on: large (Lg) crabgrass (Digitaria sanguinalis); experiment: as above; settings: Digitaria sanguinalis; for pest or weed control at 62 g/ha: 62 g ai/ha; for pest or weed control at 125 g/ha: 125 g ai/ha; for pest or weed control at 250 g/ha: 250 g ai/ha
Method in brief: as §2

[12] = tested on: yellow nutsedge (Cyperus esculentus); experiment: as above; settings: Cyperus; for pest or weed control at 62 g/ha: 62 g ai/ha; for pest or weed control at 125 g/ha: 125 g ai/ha; for pest or weed control at 250 g/ha: 250 g ai/ha
Method in brief: as §2

[13] = post-emergence, Postemergence, read-out: Plant response rating (0 to 100), Soybean
[14] = post-emergence, Postemergence, scale 0 to 100
[15] = pre-emergence, Preemergence, read-out: Plant response rating, Soybean
[16] = pre-emergence, Preemergence, 500 g ai/ha
[17] = post-emergence, Postemergence, read-out: Plant response rating (0 to 100), Galium
[18] = pre-emergence, Preemergence, read-out: Plant response rating, Galium
[19] = post-emergence, Postemergence, read-out: Plant response rating (0 to 100), Blackgrass
[20] = pre-emergence, Preemergence, read-out: Plant response rating, Blackgrass
[21] = post-emergence, Postemergence, read-out: Plant response rating (0 to 100), Morningglory
[22] = pre-emergence, Preemergence, read-out: Plant response rating, Morningglory
[23] = post-emergence, Postemergence, read-out: Plant response rating (0 to 100), Lambsquarters
[24] = pre-emergence, Preemergence, read-out: Plant response rating, Lambsquarters
[25] = post-emergence, Postemergence, read-out: Plant response rating (0 to 100), Ryegrass, Italian
[26] = pre-emergence, Preemergence, read-out: Plant response rating, Ryegrass, Italian
[27] = post-emergence, Postemergence, read-out: Plant response rating (0 to 100), Ragweed
[28] = pre-emergence, Preemergence, read-out: Plant response rating, Ragweed
[29] = post-emergence, Postemergence, read-out: Plant response rating (0 to 100), Velvetleaf
[30] = pre-emergence, Preemergence, read-out: Plant response rating, Velvetleaf
[31] = post-emergence, Postemergence, read-out: Plant response rating (0 to 100), Crabgrass, Large
[32] = pre-emergence, Preemergence, read-out: Plant response rating, Crabgrass, Large
[33] = post-emergence, Postemergence, read-out: Plant response rating (0 to 100), Nutsedge, Yellow
[34] = pre-emergence, Preemergence, read-out: Plant response rating, Nutsedge, Yellow

Cn1cc(C(=O)c2ccccc2)c(-c2cc(Cl)cc(Cl)c2)n1 [Compound 54, [3-(3,5-dichlorophenyl)-1-methyl-1H-pyrazol-4-yl]phenylmethanone]
Plant response rating (0 to 100), Goosegrass ([1]; 31 g ai/ha): 0 | Plant response rating (0 to 100), Goosegrass ([1]; 62 g ai/ha): 0 | Plant response rating (0 to 100), Goosegrass ([1]; 125 g ai/ha): 0 | Plant response rating, Goosegrass ([1]; 250 g ai/ha, scale 0 to 100): 0 | Plant response rating (0 to 100), Bermudagrass ([2]; 31 g ai/ha): 0 | Plant response rating (0 to 100), Bermudagrass ([2]; 62 g ai/ha): 0 | Plant response rating (0 to 100), Bermudagrass ([2]; 125 g ai/ha): 0 | Plant response rating, Bermudagrass ([2]; 250 g ai/ha, scale 0 to 100): 0 | plant injury at 62 g/ha (soybean (Glycine max); [13]): 0% | plant injury at 125 g/ha (soybean (Glycine max); [13]): 0% | plant injury at 250 g/ha (soybean (Glycine max); [14]): 0% | plant injury at 62 g/ha (soybean (Glycine max); [15]): 0% | plant injury at 125 g/ha (soybean (Glycine max); [15]): 0% | plant injury at 250 g/ha (soybean (Glycine max); pre-emergence, Preemergence): 0% | plant injury at 500 g/ha (soybean (Glycine max); [16]): 0% | pest or weed control at 31 g/ha ([3]; post-emergence, Postemergence, 31 g ai/ha, read-out: Plant response rating (0 to 100), Galium): 0% | pest or weed control at 62 g/ha [3, 17]: 0% | pest or weed control at 125 g/ha [3, 17]: 0% | pest or weed control at 250 g/ha [3, 14]: 5% | pest or weed control at 62 g/ha [3, 18]: 0% | pest or weed control at 125 g/ha [3, 18]: 0% | pest or weed control at 250 g/ha ([3]; pre-emergence, Preemergence): 0% | pest or weed control at 500 g/ha [3, 16]: 5% | pest or weed control at 31 g/ha ([4]; post-emergence, Postemergence, 31 g ai/ha, read-out: Plant response rating (0 to 100), Blackgrass): 0% | pest or weed control at 62 g/ha [4, 19]: 0% | pest or weed control at 125 g/ha [4, 19]: 0% | pest or weed control at 250 g/ha [4, 14]: 0% | pest or weed control at 62 g/ha [4, 20]: 0% | pest or weed control at 125 g/ha [4, 20]: 0% | pest or weed control at 250 g/ha ([4]; pre-emergence, Preemergence): 0% | pest or weed control at 62 g/ha ([5]; post-emergence, Postemergence, read-out: Plant response rating (0 to 100), Pigweed): 98% | pest or weed control at 125 g/ha ([5]; post-emergence, Postemergence, 125 g ai/ha, read-out: Plant response rating (0 to 100), Pigweed): 100% | pest or weed control at 250 g/ha [5, 14]: 100% | pest or weed control at 62 g/ha ([5]; pre-emergence, Preemergence, read-out: Plant response rating, Pigweed): 90% | pest or weed control at 250 g/ha ([5]; pre-emergence, Preemergence): 95% | pest or weed control at 500 g/ha [5, 16]: 95% | pest or weed control at 62 g/ha [6, 21]: 0% | pest or weed control at 125 g/ha [6, 21]: 0% | pest or weed control at 250 g/ha [6, 14]: 0% | pest or weed control at 62 g/ha [6, 22]: 0% | pest or weed control at 125 g/ha [6, 22]: 0% | pest or weed control at 250 g/ha ([6]; pre-emergence, Preemergence): 15% | pest or weed control at 500 g/ha [6, 16]: 40% | pest or weed control at 62 g/ha [7, 23]: 50% | pest or weed control at 125 g/ha [7, 23]: 55% | pest or weed control at 250 g/ha [7, 14]: 55% | pest or weed control at 62 g/ha [7, 24]: 30% | pest or weed control at 125 g/ha [7, 24]: 40% | pest or weed control at 250 g/ha ([7]; pre-emergence, Preemergence): 50% | pest or weed control at 500 g/ha [7, 16]: 100% | plant injury at 31 g/ha (corn (Zea mays); post-emergence, Postemergence, 31 g ai/ha): 0% | plant injury at 62 g/ha (corn (Zea mays); post-emergence, Postemergence, 62 g ai/ha): 0% | plant injury at 125 g/ha (corn (Zea mays); post-emergence, Postemergence, 125 g ai/ha): 0% | Corn plant response rating (crop injury, 0 = no effect, 100 = complete kill) at 250 g/ha (corn (Zea mays); [14]): 0% | Corn plant response rating (crop injury, 0 = no effect, 100 = complete kill) at 62 g/ha (corn (Zea mays); pre-emergence, Preemergence, 62 g ai/ha): 0% | Corn plant response rating (crop injury, 0 = no effect, 100 = complete kill) at 125 g/ha (corn (Zea mays); pre-emergence, Preemergence, 125 g ai/ha): 0% | Corn plant response rating (crop injury, 0 = no effect, 100 = complete kill) at 250 g/ha (corn (Zea mays); pre-emergence, Preemergence): 10% | Corn plant response rating (crop injury, 0 = no effect, 100 = complete kill) at 500 g/ha (corn (Zea mays); [16]): 10% | pest or weed control at 62 g/ha [8, 25]: 0% | pest or weed control at 125 g/ha [8, 25]: 0% | pest or weed control at 250 g/ha [8, 14]: 0% | pest or weed control at 62 g/ha [8, 26]: 0% | pest or weed control at 125 g/ha [8, 26]: 0% | pest or weed control at 250 g/ha ([8]; pre-emergence, Preemergence): 0% | pest or weed control at 500 g/ha [8, 16]: 0% | pest or weed control at 62 g/ha [9, 27]: 0% | pest or weed control at 125 g/ha [9, 27]: 0% | pest or weed control at 250 g/ha [9, 14]: 20% | pest or weed control at 62 g/ha [9, 28]: 5% | pest or weed control at 125 g/ha [9, 28]: 15% | pest or weed control at 250 g/ha ([9]; pre-emergence, Preemergence): 15% | pest or weed control at 500 g/ha [9, 16]: 40% | pest or weed control at 62 g/ha [10, 29]: 80% | pest or weed control at 125 g/ha [10, 29]: 85% | pest or weed control at 250 g/ha [10, 14]: 100% | pest or weed control at 62 g/ha [10, 30]: 45% | pest or weed control at 125 g/ha [10, 30]: 55% | pest or weed control at 250 g/ha ([10]; pre-emergence, Preemergence): 60% | pest or weed control at 500 g/ha [10, 16]: 80% | pest or weed control at 31 g/ha ([11]; post-emergence, Postemergence, 31 g ai/ha, read-out: Plant response rating (0 to 100), Crabgrass, Large): 0% | pest or weed control at 62 g/ha [11, 31]: 0% | pest or weed control at 125 g/ha [11, 31]: 0% | pest or weed control at 250 g/ha [11, 14]: 0% | pest or weed control at 62 g/ha [11, 32]: 0% | pest or weed control at 125 g/ha [11, 32]: 0% | pest or weed control at 250 g/ha ([11]; pre-emergence, Preemergence): 0% | pest or weed control at 500 g/ha [11, 16]: 30% | pest or weed control at 62 g/ha [12, 33]: 0% | pest or weed control at 125 g/ha [12, 33]: 0% | pest or weed control at 250 g/ha [12, 14]: 0% | pest or weed control at 62 g/ha [12, 34]: 0% | pest or weed control at 125 g/ha [12, 34]: 0% | pest or weed control at 250 g/ha ([12]; pre-emergence, Preemergence): 0% | pest or weed control at 500 g/ha [12, 16]: 25%
